Tested on: Escherichia coli WP2 uvrA pKM101
Assay: Bacterial mutation test, Escherichia coli
Format: cell-based
Settings: up to 5000 pg/plate, with and without S-9
Excerpt: These conditions included treatments at concentrations up to […] (the maximum recommended concentration according to current regulatory guidelines), in the absence and in the presence of a rat liver metabolic activation system (S-9).

With `COc1ccc2[nH]cc(CCN(C)C)c2c1` [5-MeO-DMT] the Induction of mutation was “did not induce mutation”.
